Here are results for 1 compound from patent US10184115B2, “Mutated cellobiose dehydrogenase with increased substrate specificity” (DIRECTSENS GMBH, priority 2012, dated 2019).

The assay deals with T1, Myriococcum thermophilum cellobiose dehydrogenase (CDH, SEQ ID NO: 1) variant R622N (Thermothelomyces myriococcoides, UniProt A9XK88, R622N).
T1 sequence (A9XK88 22-828 R622N): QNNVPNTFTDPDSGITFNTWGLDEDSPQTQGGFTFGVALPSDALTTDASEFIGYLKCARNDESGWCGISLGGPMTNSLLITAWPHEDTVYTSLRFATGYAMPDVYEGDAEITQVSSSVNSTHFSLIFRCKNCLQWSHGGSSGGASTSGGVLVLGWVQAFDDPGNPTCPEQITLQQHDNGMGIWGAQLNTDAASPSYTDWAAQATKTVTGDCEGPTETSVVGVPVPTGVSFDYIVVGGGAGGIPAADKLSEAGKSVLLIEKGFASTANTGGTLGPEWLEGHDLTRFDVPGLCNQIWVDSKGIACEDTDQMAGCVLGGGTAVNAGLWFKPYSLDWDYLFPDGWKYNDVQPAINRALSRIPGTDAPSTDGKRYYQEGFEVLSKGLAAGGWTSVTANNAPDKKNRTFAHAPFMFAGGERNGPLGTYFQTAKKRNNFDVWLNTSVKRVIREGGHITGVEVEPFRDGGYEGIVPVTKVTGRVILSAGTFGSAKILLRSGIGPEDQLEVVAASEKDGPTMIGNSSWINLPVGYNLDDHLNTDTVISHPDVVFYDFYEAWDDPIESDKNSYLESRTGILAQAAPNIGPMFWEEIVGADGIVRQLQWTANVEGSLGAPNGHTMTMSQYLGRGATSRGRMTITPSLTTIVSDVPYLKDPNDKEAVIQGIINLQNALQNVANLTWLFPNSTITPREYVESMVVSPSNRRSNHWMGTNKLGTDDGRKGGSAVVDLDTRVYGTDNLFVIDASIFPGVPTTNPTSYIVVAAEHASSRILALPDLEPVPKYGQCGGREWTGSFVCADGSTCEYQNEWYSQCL
As to the kind of experiment: Steady-state kinetics, DCIP assay: M. thermophilum CDH R622N. As to conditions: apparent, pH 4.5, 30° C. Type of assay: biochemical. As to the method: Enzyme activity was assayed at 30° C. using either the DCIP (Karapetyan et al., 2005 Journal of Biotechnology 121: 34-48) or cytochrome c (Canevascini et al., 1991, European Journal of Biochemistry 198: 43-52) as electron acceptor. […] Stock solutions of carbohydrates used for kinetic measurements were prepared in the respective buffer and allowed to stand overnight for mutarotation, while stock solutions of electron acceptors were prepared in water and immediately used. The reaction stoichiometry is 1 for the two-electron acceptor DCIP (1 mole of DCIP reduced per mole of carbohydrate oxidized), but 2 for the one-electron acceptor cytochrome c. Kinetic constants were calculated by fitting the observed data to the Henri-Michaelis-Menten equation or to the adapted model for substrate inhibition using nonlinear least-squares regression and the program SigmaPlot (Systat Software, San Jose, Calif., USA). […]
Recombinant wild-type CDH as well as variants were produced in 1 L baffled flasks. […] Increase in activity was monitored using the DCIP and the cytochrome c enzyme assays. […]
The sample was loaded on a 20 mL PHE Sepharose FF column (HR26/20) equilibrated with 50 mM Na-acetate buffer pH 5.5 containing 20% ammonium sulfate. […] Fractions were tested for CDH activity and pooled according to the highest Reinheitszahl (RZ, calculated from the absorbance ratio 420 nm/280 nm). […]

In general, kcat/KM refers to the turnover number divided by the Michaelis constant.

For the compound `OC[C@H]1O[C@H](O[C@H]2[C@H](O)[C@@H](O)C(O)O[C@@H]2CO)[C@H](O)[C@@H](O)[C@@H]1O` (stereo partly shown) [Maltose, maltose], the kcat/KM turned out to be 5.2 M⁻¹ s⁻¹.
